Experimental data reported in US9381193B2, “Contraceptive methods and compositions” (WASHINGTON UNIVERSITY, priority 2011, dated 2016).

Key:
[1] = tested on: murine ESCs; experiment: In vitro decidualization of primary murine ESCs (Prp mRNA); format: cell-based, mouse; settings: 3 days in vitro culture
Source text: (§1) In order to confirm that this is not a side effect of ESC immortalization with telomerase overexpression in this human cell line, the effect of DHEA on decidualization of primary ESC cultures from mouse and human uteri was also investigated. Murine ESCs were isolated from the gravid uterus at 4 days post coitus and cultured in vitro for 3 days to induce decidualization as described in the Methods. […] The human primary ESCs were isolated from uteri following hysterectomy for benign disease as outlined in the Methods and cultured in decidualization media for 9 days.
For in vitro decidualization of ESCs, female mice were sacrificed at 4dpc. Pregnancy was confirmed by flushing dissected uterine horns and ostia with HBSS and observing for presence of blastocysts. Uteri confirmed for pregnancy were cut into 1 mm^3 pieces and incubated in Dulbecco's modified Eagle's Medium:F12 medium (DMEM:F12) without phenol red supplemented with 2 g/liter Collagenase Type I (Gibco) for 60-90 min at 37° C. Tissues were vortexed every 15 min during incubation. Following incubation, the solution was passed through a 40 μm sieve (BD Falcon) and centrifuged at 1100 rpm for 5 min. […]

[2] = tested on: human primary ESCs; experiment: In vitro decidualization of human primary ESCs (decidualization marker mRNA); format: cell-based; settings: 9 days in decidualization media
Source text: as §1
Control samples received 0.1% ethanol vehicle control.

[3] = Artificially induced deciduoma in ovariectomized mice; format: in vivo, mouse; settings: female, FVB/NJ, mouse, serum, subcutaneous, 2 mg/100 g of body weight; measured on day +5; DHEA-treated group; read-out: Serum DHEA levels
Procedure: (§2) This induced deciduoma model allowed the study of the effect of increased DHEA on implantation independently of embryo development and ovarian function. Female mice 6-8 weeks of age were ovariectomized and rested for 2 weeks. […] At day 2 before induction, the experimental mice also began receiving DHEA at 2 mg/100 g of body weight. The control mice received no DHEA. At day 0, one uterine horn in each animal was subjected to a physical stimulus, 100 μL sesame seed oil injection, to induce a deciduoma. The second horn was left as the unstimulated internal control for each mouse. Day 0 in this case is equivalent to the day of embryo implantation in a physiological mouse pregnancy, which is 4 days post coitus. Five days after the oil injection, uterine horns were dissected out. First the gross anatomies of the uteri were assessed. Representative tissues from two mice in each treatment group are shown (FIG. 7B). […] Protein was isolated from all uterine horns in order to measure the expression of a well-established decidualization protein marker, Bmp2. […] Bmp2 expression was almost undetectable in the unstimulated uterine horns. […] In the same line of experiments, the serum hormone levels were also measured to confirm that findings were strictly the result of increased levels of DHEA.
(§3) Decidualization in vivo under chronically elevated levels of DHEA was also tested. The ovariectomy mouse model described above was used with the following changes: DHEA was administered orally (0.6% supplementation in regular chow diet) starting on the day of ovariectomy. The mice were on the diet for 2 weeks prior to the beginning of the hormone regiments described in FIG. 7A. In FIG. 8A, representative uterine horns are shown from control mice (receiving regular chow) and the treatment mice on 0.6% DHEA diet. […] A quantitative analysis of the decidual reaction in shown in FIG. 8B, where the mass of the uterine horns is shown. Lastly, it should be noted that ovariectomised mice, similar to post-menopausal women, tend to have increased body fat percentage.
(§4) To generate deciduomas 7-8 wk-old female FVB/NJ mice were used and treated as described previously. A time line of the hormone administrations is presented in FIG. 7a, adapted from Herington et al. Briefly, mice were ovariectomized and allowed 2 weeks for recovery. They were then injected with 100 ng 17b-estradiol (E2) (Sigma) for three days, rested two days, and then injected with 10 ng E2/1 μg Progesterone (P4, Sigma) for three days. […] Immediately following the last of the above sensitization injections, the right uterine horn received an intra-luminal injection of 100 μL of sunflower seed oil. Mice continued to receive 1 μg P4 subcutaneously for up to 4 days. Mice receiving the DHEA treatment received […] starting on the day the E2/P4 injections were begun and continued for the 7 days following, until mice were sacrificed. On the day following the last injection, serum samples were collected, the mice were sacrificed and uterine horns dissected out. Serum DHEA, E2 and P4 levels were analyzed by ELISA assays (Alpco Immunoassays).

[4] = tested on: FVB/NJ mice; experiment: as above; format: in vivo, mouse
Procedure: as §2, §3, §4

[5] = tested on: FVB/NJ mice; experiment: Ovarian histology and follicle counts in DHEA-fed mice; format: in vivo, mouse; settings: 0.6% DHEA diet
Source text: (§5) Female FVB/NJ mice were obtained from Jackson Laboratories (Bar Harbor, Me., USA). Regular rodent chow was supplemented with DHEA at 0.01%, 0.1% and 0.6% w/w. Three-week-old mice had access to food and water ad libitum. Mice were fed control or DHEA-supplemented chow for two weeks. The Animal Studies Committee at Washington University School of Medicine reviewed and approved all animal experiments. Animals were maintained according to the Guide for the Care and Use of Laboratory Animals provided by the Institute for Laboratory Animal Research.
For histological evaluation, one ovary from five mice in each group was fixed in Bouin's solution, transferred to 70% ethanol then embedded in paraffin and serial sectioned at 10 microns. Every tenth section was kept and stained with hematoxylin and eosin. Follicles with visible nuclei were classified as primordial, primary, secondary or antral. Corpora lutea were also counted. Follicle counts from each classification were summed for each mouse.

[6] = tested on: FVB/NJ mice; experiment: Pregnancy rates / litters of DHEA-fed mice; format: in vivo, mouse
Procedure: To determine the reversibility of DHEA, mice were fed the two higher DHEA diets that prevented normal estrous cycles for two weeks followed by regular rodent chow for two weeks. Estrous cycles and pregnancy rates were recorded.
as §5
Control and DHEA-fed mice were mated with males of known fertility until three litters were delivered or up to 12 weeks.

C[C@]12CC[C@H](O)CC1=CC[C@@H]1[C@@H]2CC[C@]2(C)C(=O)CC[C@@H]12 [DHEA, dehydroepiandrosterone]
Prp mRNA expression [1]: decreased upon addition of DHEA in a concentration-dependent manner
Expression of PRL and IGFBP1 [2]: decreased in a concentration dependent manner
concentration at 5 day (after oil injection on day 0) [3]: 32.6 ng/mL
Deciduoma formation under chronic DHEA ([4]; 0.6% DHEA in chow, oral, from day of ovariectomy): no difference between the stimulated and unstimulated uterine horns
Decrease in Bmp2 protein induction in deciduomas vs control mice (Western blot) ([4]; DHEA 2 mg/100 g of body weight): 3 fold
Decrease in the decidual response by uterine mass vs controls ([4]; DHEA 2 mg/100 g of body weight): ~3 fold
Morphology of uterine cross sections of stimulated horns ([4]; DHEA 2 mg/100 g of body weight): no decidual cells
Gross deciduoma formation along the stimulated uterine horn ([4]; DHEA 2 mg/100 g of body weight from day 2 before induction, 5 days after oil injection): weak, if any, deciduoma formation
Ovarian morphology [5]: large cystic structures
Litters while on diet ([6]; 0.01% DHEA diet): the litters were smaller than the controls
Litters while on diet ([6]; 0.1% and 0.6% DHEA diet): did not deliver any pups
